From patent US20160346255A1, “METHODS, AGENTS AND COMPOSITIONS FOR TREATMENT OF INFLAMMATORY CONDITIONS” (Betanien Hospital, priority 2014, published 2016)

Experiments:
Assay type in all cases: in vivo, human
[1] = tested on: Patient with Psoriatic Arthritis; experiment: Psoriatic arthritis patient treated with oral ASP1707; details: 3 mg daily for 12 weeks; response at 4 months
Description: • person with psoriatic arthritis • Fulfills CASPAR 2006 classification criteria for psoriatic arthritis.
• Is offered experimental GnRH antagonist therapy, ASP1707 3 mg daily for 12 weeks.

[2] = tested on: patient with cancer-related inflammation; experiment: Cancer-related inflammation, colon cancer patient treated with oral ASP1707; details: 8 mg daily, at 3 months
Excerpt: • person with colon cancer with disease duration of 1 year. Suffers from signs and symptoms of cancer-related inflammation, such as pain, anorexia, and fatigue.

[3] = tested on: post-menopausal female with rheumatoid arthritis; experiment: Post-menopausal RA patients on methotrexate, oral ASP1707 30 mg twice daily for 12 weeks; details: ASP1707+MTX; Week 12; assuming placebo+MTX 30%
Description: • Patient is offered experimental GnRH antagonist therapy, ASP1707 30 mg twice daily for 12 weeks orally. Primary Assessment is ACR20 response rate at 12 weeks.

Compound: C[C@@H](O)C(=N)NS(=O)(=O)c1cc(C(=O)C(C(=O)c2cc(F)ccc2F)=C2Nc3ccccc3N2)ccc1F [ASP1707, (2R)—N-({5-[3-(2,5-difluorophenyl)-2-(1,3-dihydro-2H-benzoimidazol-2-ylidene)-3-oxopropanoyl]-2-fluorophenyl}sulfonyl)-2-hydroxypropanimidamide]
- DAS reduction [1]: over 0.6 units
- Signs and symptoms of cancer related inflammation (pain, anorexia, fatigue) [2]: reduced
- CRP ([2]; baseline 40 mg/L): 12 mg/L
- ACR20 response rate [3]: 60%
